Data reported in PubChem BioAssay (NCI).
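Five concentrations, 48 hours, 96-well plates. GI50 = concentration required for 50% inhibition of growth. TGI denotes the concentration required for complete inhibition of growth.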

Legend:
Assay in all cases: DTP human tumour cell line panel, 48 h
[1] = tested on: A549 NSCLC
[2] = tested on: UO-31 renal
[3] = tested on: HOP-62 NSCLC
[4] = tested on: SK-MEL-2 melanoma
[5] = tested on: CAKI-1 renal
[6] = tested on: CCRF-CEM leukemia
[7] = tested on: NCI/ADR-RES ovarian
[8] = tested on: RXF 393 renal
[9] = tested on: NCI-H460 lung
[10] = tested on: NCI-H23 lung
[11] = tested on: HCT-15 colon
[12] = tested on: COLO 205 colon
[13] = tested on: HCC-2998 colon
[14] = tested on: OVCAR-5 ovarian
[15] = tested on: SK-MEL-5 melanoma
[16] = tested on: PC-3 prostate
[17] = tested on: ACHN renal
[18] = tested on: SNB-75 CNS
[19] = tested on: SNB-19 CNS
[20] = tested on: RPMI-8226 leukemia
[21] = tested on: LOX IMVI melanoma
[22] = tested on: SK-MEL-28 melanoma
[23] = tested on: SW-620 colon
[24] = tested on: MCF7 breast
[25] = tested on: TK-10 renal
[26] = tested on: NCI-H226 lung
[27] = tested on: T-47D breast
[28] = tested on: SF-295 CNS
[29] = tested on: IGROV1 ovarian
[30] = tested on: K-562 leukemia
[31] = tested on: KM12 colon
[32] = tested on: HOP-92 NSCLC
[33] = tested on: SK-OV-3 ovarian
[34] = tested on: MOLT-4 leukemia
[35] = tested on: 786-0 renal
[36] = tested on: SF-539 CNS
[37] = tested on: UACC-62 melanoma
[38] = tested on: A498 renal
[39] = tested on: SF-268 CNS
[40] = tested on: HL-60(TB) leukemia
[41] = tested on: SR leukemia
[42] = tested on: SN12C renal
[43] = tested on: M14 melanoma
[44] = tested on: HCT-116 colon
[45] = tested on: OVCAR-4 ovarian
[46] = tested on: MALME-3M melanoma
[47] = tested on: HS 578T breast
[48] = tested on: MDA-MB-231 breast
[49] = tested on: NCI-H522 lung
[50] = tested on: BT-549 breast
[51] = tested on: MDA-MB-435
[52] = tested on: DU-145 prostate
[53] = tested on: OVCAR-3 ovarian
[54] = tested on: HT29 colon
[55] = tested on: UACC-257 melanoma
[56] = tested on: OVCAR-8 ovarian
[57] = tested on: EKVX NSCLC
[58] = tested on: U251 CNS

With `O=c1nc(Nc2ccc([N+](=O)[O-])cc2O)sc2ccccc12` the GI50 [1] was 4.58 µM, the TGI [1] was greater than 16.7 µM and the GI50 [2] was 0.853 µM. The TGI [2] was greater than 16.7 µM, the GI50 [3] was 0.917 µM and the TGI [3] was greater than 16.7 µM. For the same compound, the GI50 [4] was 1.18 µM, the TGI [4] was greater than 16.7 µM and the GI50 [5] was 0.659 µM. For the same compound, the TGI [5] was greater than 16.7 µM, the GI50 [6] was 4.47 µM and the TGI [6] was greater than 16.7 µM. For the same compound, the GI50 [7] was 0.532 µM, the TGI [7] was 4.47 µM and the GI50 [8] was 0.437 µM. For the same compound, the TGI [8] was 2.33 µM, the GI50 [9] was 0.67 µM and the TGI [9] was greater than 16.7 µM. It also gave a GI50 [10] of 1.1 µM, a TGI [10] greater than 16.7 µM and a GI50 [11] of 0.756 µM. The TGI [11] was greater than 16.7 µM, the GI50 [12] was greater than 16.7 µM and the TGI [12] was greater than 16.7 µM. For the same compound, the GI50 [13] was 4.39 µM, the TGI [13] was greater than 16.7 µM and the GI50 [14] was 9.42 µM. It also gave a TGI [14] greater than 16.7 µM, a GI50 [15] of 0.858 µM and a TGI [15] of 5.41 µM. For the same compound, the GI50 [16] was 4.92 µM, the TGI [16] was greater than 16.7 µM and the GI50 [17] was 2.16 µM. The TGI [17] was greater than 16.7 µM, the GI50 [18] was 0.307 µM and the TGI [18] was 1.2 µM. For the same compound, the GI50 [19] was 0.949 µM, the TGI [19] was greater than 16.7 µM and the GI50 [20] was 0.737 µM. The TGI [20] was 10.8 µM, the GI50 [21] was 1.14 µM and the TGI [21] was greater than 16.7 µM. For the same compound, the GI50 [22] was 4.22 µM, the TGI [22] was greater than 16.7 µM and the GI50 [23] was 0.955 µM. It also gave a TGI [23] greater than 16.7 µM, a GI50 [24] of 0.637 µM and a TGI [24] greater than 16.7 µM. For the same compound, the GI50 [25] was greater than 16.7 µM, the TGI [25] was greater than 16.7 µM and the GI50 [26] was 0.783 µM. For the same compound, the TGI [26] was greater than 16.7 µM, the GI50 [27] was 4.3 µM and the TGI [27] was greater than 16.7 µM. It also gave a GI50 [28] of 1.11 µM, a TGI [28] greater than 16.7 µM and a GI50 [29] of 1.11 µM. It also gave a TGI [29] greater than 16.7 µM, a GI50 [30] of 0.557 µM and a TGI [30] greater than 16.7 µM. The GI50 [31] was 1.04 µM, the TGI [31] was greater than 16.7 µM and the GI50 [32] was 2.3 µM. The TGI [32] was 15.9 µM, the GI50 [33] was 1.31 µM and the TGI [33] was greater than 16.7 µM. The GI50 [34] was 3.73 µM, the TGI [34] was greater than 16.7 µM and the GI50 [35] was 6.06 µM. The TGI [35] was greater than 16.7 µM, the GI50 [36] was 0.696 µM and the TGI [36] was 8.94 µM. It also gave a GI50 [37] of 0.88 µM, a TGI [37] greater than 16.7 µM and a GI50 [38] of 0.574 µM. The TGI [38] was 2.3 µM, the GI50 [39] was 1.31 µM and the TGI [39] was greater than 16.7 µM. For the same compound, the GI50 [40] was 0.662 µM, the TGI [40] was 3.69 µM and the GI50 [41] was 0.462 µM. It also gave a TGI [41] greater than 16.7 µM, a GI50 [42] of 3.15 µM and a TGI [42] greater than 16.7 µM. The GI50 [43] was 0.648 µM, the TGI [43] was greater than 16.7 µM and the GI50 [44] was 0.882 µM. The TGI [44] was greater than 16.7 µM, the GI50 [45] was 4.4 µM and the TGI [45] was greater than 16.7 µM. For the same compound, the GI50 [46] was 4.09 µM, the TGI [46] was greater than 16.7 µM and the GI50 [47] was 0.576 µM. It also gave a TGI [47] greater than 16.7 µM, a GI50 [48] of 7.41 µM and a TGI [48] greater than 16.7 µM. The GI50 [49] was 0.786 µM, the TGI [49] was 10.4 µM and the GI50 [50] was 0.885 µM. For the same compound, the TGI [50] was greater than 16.7 µM, the GI50 [51] was 0.466 µM and the TGI [51] was greater than 16.7 µM. It also gave a GI50 [52] of 5.61 µM, a TGI [52] greater than 16.7 µM and a GI50 [53] of 0.719 µM. It also gave a TGI [53] greater than 16.7 µM, a GI50 [54] greater than 16.7 µM and a TGI [54] greater than 16.7 µM. The GI50 [55] was 1.66 µM, the TGI [55] was greater than 16.7 µM and the GI50 [56] was 3.83 µM. For the same compound, the TGI [56] was greater than 16.7 µM, the GI50 [57] was 4.05 µM and the TGI [57] was greater than 16.7 µM. The GI50 [58] was 1.06 µM and the TGI [58] was greater than 16.7 µM.
